Test results as given in US20120190703A1, “SALTS OF 13A-(S)DESOXYTYLOPHORININE, PREPARATION METHODS AND PHARMACEUTICAL COMPOSITIONS AND USES THEREOF” (priority 2009, published 2012).
Several values for one entry are separate records, joined by “and”; a condition that tells them apart may be missing. Equal entries are not always repeated. Where two headings read alike, the source gives them in different places. Marks after values point to notes of the source that are not given here.

Experiments:
Solubility in water = type: physicochemical
[1] = Plasma pharmacokinetics after oral administration in mice
Description: To determine the pharmacokinetic characters of 13a-(S)-deoxytylophorinine and its salts, the studies about plasma pharmacokinetics and the character of distribution in brain were pursued.
(§1) Male ICR mice. Body weight 18˜22 g.
(+)-13a-(S)-deoxytylophorinine Tartrate, (+)-13a-(S)-deoxytylophorinine Maleate, (+)-13a-(S)-deoxytylophorinine Citrate. All were dissolved in distilled water as 0.6 mg/ml solution before experiment progressed.
72 mice were divided to 3 groups with 24 animals per group, fasting for 16 h and drinking water freely. […] Plasma was isolated by centrifugalization. After the salts were administered orally, the brain tissues of mice were collected at 5 min, 15 min, 2 h time points. 25% tissue homogenate was prepared with normal saline addition. 200 μL of homogenate and plasma were added isovolumic MeCN to precipitate protein. 5 μL of clear supernatant was analyzed by LC/MS/MS.
(+)-13a-(S)-deoxytylophorinine was dissolved in DMSO and then diluted with MeOH with concentration 10, 50, 100, 500, 1000 and 2500 ng/ml respectively. 10 μl of standard solutions of (+)-13a-(S)-deoxytylophorinine with different concentration above were added to 200 μl of blank plasma sequently to adjust the concentration to 0.5, 2.5, 5, 25, 50, 125 ng/ml respectively. MeCN was added to the solution to precipitate protein, and 5 μl of result clear supernatant was analyzed with LC/MS/MS. Linear regression was ran with the peak area of (+)-13a-(S)-deoxytylophorinine as ordinate and the concentrations as abscissa.

H22 tumor-bearing mice = settings: intragastric once daily
Text: To determine the pharmacodynamic characters of 13a-(S)-deoxytylophorinine and its salts, the impact of these compounds to the tumor growth in H22 tumor-bearing mice was surveyed.
Male Kunming mice were obtained from the Laboratory Animal Center, Academy of Military Medical Science. Body weight 18˜22 g. 6 animals per group, totally 10 groups, 60 animals.
(+)-13a-(S)-deoxytylophorinine, (+)-13a-(S)-deoxytylophorinine Tartrate, (+)-13a-(S)-deoxytylophorinine Maleate, (+)-13a-(S)-deoxytylophorinine Citrate, Cytoxane (CTX) as positive control.
(+)-13a-(S)-deoxytylophorinine was administered at high dose (5 mg/kg) and low dose (2.5 mg/kg). Three (+)-13a-(S)-deoxytylophorinine salts were administered at high dose and low dose as equal moles with their prototype (Tartrate: 7.05 mg/kg, 3.53 mg/kg; Malate: 6.60 mg/kg, 3.30 mg/kg; Citrate: 7.90 mg/kg, 3.95 mg/kg).
Animals were reared in SPF grade circumstance to be observed for 24 h. The tumor cells liquid which resuscitated in abdominal cavity of KM mice was diluted with aseptic normal saline at 1:3 ratio. The resulting liquid was inoculated subcutaneously at forelimb with 0.2 mL every animal. After the injection over, the animals were divided to […] with 6 animals per group.
Four experimental samples were intragastric administered once daily 24 h after inoculation. The positive control CTX was intraperitoneal injected once daily. The animal body weight was recorded every day.

[2] = Drug distribution in brain tissue after oral administration in mice; type: in vivo, ICR mice; settings: for Brain contents of (+)-13a-(S)-deoxytylophorinine (ng/ml), Mean ± SD / Brain contents of (+)-13a-(S)-deoxytylophorinine (ng/ml), individual animals 1-3: 6 mg/kg oral
Description: as §1
Plasma was isolated by centrifugalization. […] 25% tissue homogenate was prepared with normal saline addition.
The drug concentration-time data in brain tissue after administered orally of (+)-13a-(S)-deoxytylophorinine tartrate, maleate and citrate were represented in Table 8˜10 and FIG. 6˜8. […] (+)-13a-(S)-deoxytylophorinine could be detected in 5 min. The peak concentration was reached after 15 min, and the compound still can be detected after 2 h after administration.

[3] = 6 mg/kg oral, mice, Time (min) 3
[4] = 6 mg/kg oral, mice, Time (min) 6
[5] = male, ICR, mouse, plasma, po, 6 mg/kg
[6] = high dose × 7 d, equal moles: prototype 5.0, tartrate 7.05, maleate 6.60, citrate 7.90 mg/kg
[7] = low dose × 7 d, equal moles: prototype 2.5, tartrate 3.53, maleate 3.30, citrate 3.95 mg/kg

COc1ccc2c3c(c4cc(OC)c(OC)cc4c2c1)CN1CCC[C@H]1C3.O=C(O)C(O)C(O)C(=O)O [Tartrate, (+)-13a-(S)-deoxytylophorinine Tartrate]
Solubility in water (words) (Solubility in water): soluble in water | solubility (Solubility in water; water): 39 mg/mL | Peak concentration in blood ([1]; 6 mg/kg oral, mice): 34.2 ± 3.1 ng/mL | Time of peak concentration in blood ([1]; 6 mg/kg oral, mice): 15 min | t½z ([1]; 6 mg/kg oral, mice, plasma, non-compartment model): 0.88 h | Blood concentration of (+)-13a-(S)-deoxytylophorinine (ng/ml), individual animals 1-3 ([1]; 6 mg/kg oral, mice, Time (min) 0.08): 18.4 ng/mL and 11.7 ng/mL and 42.0 ng/mL | Blood concentration of (+)-13a-(S)-deoxytylophorinine (ng/ml), individual animals 1-3 ([1]; 6 mg/kg oral, mice, Time (min) 0.25): 30.6 ng/mL and 36.1 ng/mL and 35.7 ng/mL | Blood concentration of (+)-13a-(S)-deoxytylophorinine (ng/ml), individual animals 1-3 ([1]; 6 mg/kg oral, mice, Time (min) 0.5): 16.5 ng/mL and 9.0 ng/mL and 7.8 ng/mL | Blood concentration of (+)-13a-(S)-deoxytylophorinine (ng/ml), individual animals 1-3 ([1]; 6 mg/kg oral, mice, Time (min) 1): 6.2 ng/mL and 10.0 ng/mL | Blood concentration of (+)-13a-(S)-deoxytylophorinine (ng/ml), individual animals 1-3 ([1]; 6 mg/kg oral, mice, Time (min) 2): 2.5 ng/mL and 12.4 ng/mL and 8.7 ng/mL | Blood concentration of (+)-13a-(S)-deoxytylophorinine (ng/ml), Mean ± SD [1, 3]: 4.5 ± 1.2 ng/mL | Blood concentration of (+)-13a-(S)-deoxytylophorinine (ng/ml), individual animals 1-3 [1, 3]: 3.0 ng/mL and 5.0 ng/mL and 5.3 ng/mL | Blood concentration of (+)-13a-(S)-deoxytylophorinine (ng/ml), individual animals 1-3 ([1]; 6 mg/kg oral, mice, Time (min) 4): 3.3 ng/mL and 4.2 ng/mL and 1.1 ng/mL | Blood concentration of (+)-13a-(S)-deoxytylophorinine (ng/ml), Mean ± SD [1, 4]: 0.4 ± 0.4 ng/mL | Blood concentration of (+)-13a-(S)-deoxytylophorinine (ng/ml), individual animals 1-3 [1, 4]: 0.0 ng/mL and 0.2 ng/mL and 0.8 ng/mL | concentration at 5 min ([1]; male, ICR, mouse, plasma, oral, 6 mg/kg, Blood concentration of (+)-13a-(S)-deoxytylophorinine (ng/ml), Mean ± SD, 6 mg/kg oral, mice, Time (min) 0.08): 24 ± 15.9 ng/mL | concentration at 15 min ([1]; male, ICR, mouse, plasma, oral, 6 mg/kg, Blood concentration of (+)-13a-(S)-deoxytylophorinine (ng/ml), Mean ± SD, 6 mg/kg oral, mice, Time (min) 0.25): 34.2 ± 3.1 ng/mL | concentration at 0.5 h ([1]; male, ICR, mouse, plasma, oral, 6 mg/kg, Blood concentration of (+)-13a-(S)-deoxytylophorinine (ng/ml), Mean ± SD, 6 mg/kg oral, mice, Time (min) 0.5): 11.1 ± 4.7 ng/mL | concentration at 1 h ([1]; male, ICR, mouse, plasma, oral, 6 mg/kg, Blood concentration of (+)-13a-(S)-deoxytylophorinine (ng/ml), Mean ± SD, 6 mg/kg oral, mice, Time (min) 1): 8.1 ± 2.7 ng/mL | concentration at 2 h ([1]; male, ICR, mouse, plasma, oral, 6 mg/kg, Blood concentration of (+)-13a-(S)-deoxytylophorinine (ng/ml), Mean ± SD, 6 mg/kg oral, mice, Time (min) 2): 7.9 ± 5 ng/mL | concentration at 4 h ([1]; male, ICR, mouse, plasma, oral, 6 mg/kg, Blood concentration of (+)-13a-(S)-deoxytylophorinine (ng/ml), Mean ± SD, 6 mg/kg oral, mice, Time (min) 4): 2.8 ± 1.6 ng/mL | AUC(0-inf) [1, 5]: 0.0379 µg·h/mL | AUC(0-t) [1, 5]: 0.0374 µg·h/mL | Cmax [1, 5]: 34.2 ng/mL | MRT inf [1, 5]: 1.63 h | MRT last [1, 5]: 1.57 h | Tmax [1, 5]: 0.25 h | Animal No. (Initial/Final) (H22 tumor-bearing mice; [6]): 6/6 | Body Weight(g) Final (H22 tumor-bearing mice; [6]): 13.55 ± 1.87 g | Body Weight(g) Initial (H22 tumor-bearing mice; [6]): 22.00 ± 1.55 g⁻¹ | Inhibition (%) (H22 tumor-bearing mice; [6]): 80.35** % | Tumor Weight (g, mean ± SD) (H22 tumor-bearing mice; [6]): 0.23 ± 0.15 g | Animal No. (Initial/Final) (H22 tumor-bearing mice; [7]): 6/6 | Body Weight(g) Final (H22 tumor-bearing mice; [7]): 19.76 ± 2.34 g | Body Weight(g) Initial (H22 tumor-bearing mice; [7]): 21.50 ± 0.84 g⁻¹ | Inhibition (%) (H22 tumor-bearing mice; [7]): 31.88% | Tumor Weight (g, mean ± SD) (H22 tumor-bearing mice; [7]): 0.78 ± 0.48 g | Brain contents of (+)-13a-(S)-deoxytylophorinine (ng/ml), Mean ± SD ([2]; Time (min) 5): 48.0 ± 21.6 ng/mL | Brain contents of (+)-13a-(S)-deoxytylophorinine (ng/ml), individual animals 1-3 ([2]; Time (min) 5): 32.4 ng/mL and 38.8 ng/mL and 72.7 ng/mL | Brain contents of (+)-13a-(S)-deoxytylophorinine (ng/ml), Mean ± SD ([2]; Time (min) 15): 262.9 ± 11.9 ng/mL | Brain contents of (+)-13a-(S)-deoxytylophorinine (ng/ml), individual animals 1-3 ([2]; Time (min) 15): 249.3 ng/mL and 271.0 ng/mL and 268.5 ng/mL | Brain contents of (+)-13a-(S)-deoxytylophorinine (ng/ml), Mean ± SD ([2]; Time (min) 120): 45.7 ± 33.0 ng/mL | Brain contents of (+)-13a-(S)-deoxytylophorinine (ng/ml), individual animals 1-3 ([2]; Time (min) 120): 24.7 ng/mL and 28.7 ng/mL and 83.7 ng/mL | Drug contents in brain compared with prototype ([2]; oral, 3 time points): higher than their prototype
